According to patent publication US11401555B2, “Genetic polymorphisms associated with stroke, methods of detection and uses thereof” (CELERA CORPORATION, priority 2008, dated 2022):

Test: Stroke statin response (SSR) in the PROSPER pravastatin trial: pravastatin-treated versus placebo-treated, by SNP genotype
Type: in vivo, human
Excerpt: (hCV26505812) for association with SSR in CARE (Table 37) and PROSPER (Table 38), including both unadjusted and adjusted analyses (adjusted for factors such as age, gender, smoking status, hypertension, diabetes, BMI, and LDL and HDL levels). Table 37 provides results in CARE, and Table 38 provides results in PROSPER (whether each analysis is unadjusted or adjusted is indicated in the “adjust” column in Table 37, or by “unadj” and “adj” column labels in Tables 38). With respect to Tables 22-32 and 37-38, the columns labeled “Genotype” (in Tables 22-28 and 37), “Geno_Placebo” (in Tables 29-30 and 38), and “Geno_Resp” (in Tables 31-32 and 38) indicate the genotype which the given stroke risk or SSR results correspond to. […] In Tables 29-32 and 38, the columns labeled “LOWER_PLACEBO” and “UPPER_PLACEBO” (Tables 29-30 and 38), and “LOWER_RESP” and “UPPER_RESP” (Tables 31-32 and 38), refer to the lower and upper 95% confidence intervals for the hazard ratios. See Example Six below for further information relating to Tables 22-32 and 37-38. […] As used herein, the term “benefit” (with respect to a preventive or therapeutic drug treatment) is defined as achieving a reduced risk for a disease that the drug is intended to treat or prevent (e.g., stroke) by administrating the drug treatment, compared with the risk for the disease in the absence of receiving the drug treatment (or receiving a placebo in lieu of the drug treatment) for the same genotype. The term “benefit” may be used herein interchangeably with terms such as “respond positively” or “positively respond”. For stroke risk and statin response associations based on samples from the CARE and PROSPER trials described herein, stroke risk is assessed by comparing the risk of stroke for a given genotype with the risk of stroke for a reference genotype either in the placebo arm of the trial or in the whole study population of the trial, and statin response is assessed by comparing the risk of stroke in the pravastatin arm of the trial with the risk of stroke in the placebo arm of the trial for the same genotype. […] Example Five above describes the analysis of these 61 SNPs plus 17 additional SNPs in the German West Study. […] In PROSPER, SNPs were analyzed for association with stroke risk or SSR, in the whole study cohort (strata: “ALL”), or in the subgroup with a history of CVD (strata: “hist”) or without a CVD history (strata: “no hist”). […] Also in the CARE and PROSPER trials, the chromosome 9p21 SNP […] (hCV26505812) was analyzed further for association with SSR, including unadjusted and adjusted analysis. Adjusted analysis in CARE (Table 37) was adjusted for age, gender, smoking status, hypertension, diabetes, body mass index (BMI), and LDL and HDL levels, and adjusted analysis in PROSPER (Table 38) was adjusted for country, gender, age, LDL, HDL, smoking status (current vs. past or never), history of hypertension, and diabetes. Table 37 provides results in CARE, and Table 38 provides results in PROSPER (whether each analysis is unadjusted or adjusted is indicated in the “adjust” column in Table 37, or by “unadj” and “adj” column labels in Tables 38). All the p-values (including Pint values) provided in Tables 37-38 are two-sided p-values.

[1] = hCV2169762 rs1804689 HPS1, GENO_RESP GG, MODE GEN, STRATA no hist
[2] = hCV2169762 rs1804689 HPS1, GENO_RESP GT, MODE GEN, STRATA hist
[3] = hCV2169762 rs1804689 HPS1, GENO_RESP GT, MODE GEN, STRATA no hist
[4] = hCV2169762 rs1804689 HPS1, GENO_RESP TT, MODE GEN, STRATA no hist
[5] = hCV2442143 rs12544854 ASAH1, GENO_RESP CC + CT, MODE REC, STRATA no hist
[6] = hCV2442143 rs12544854 ASAH1, GENO_RESP TT + CT, MODE DOM, STRATA hist
[7] = hCV26505812 rs10757274 C9p21, GENO_RESP AA, MODE GEN, STRATA ALL
[8] = hCV26505812 rs10757274 C9p21, GENO_RESP AA, MODE GEN, STRATA no hist
[9] = hCV26505812 rs10757274 C9p21, GENO_RESP AG, MODE GEN, STRATA ALL
[10] = hCV26505812 rs10757274 C9p21, GENO_RESP AG, MODE GEN, STRATA no hist
[11] = hCV26505812 rs10757274 C9p21, GENO_RESP GG + AG, MODE DOM, STRATA ALL
[12] = hCV26505812 rs10757274 C9p21, GENO_RESP GG + AG, MODE DOM, STRATA no hist
[13] = hCV26505812 rs10757274 C9p21, GENO_RESP GG, MODE GEN, STRATA ALL
[14] = hCV26505812 rs10757274 C9p21, GENO_RESP GG, MODE GEN, STRATA no hist
[15] = hCV27511436 rs3750145 FZD1, GENO_RESP CC + CT, MODE DOM, STRATA no hist
[16] = hCV27511436 rs3750145 FZD1, GENO_RESP CC, MODE GEN, STRATA no hist
[17] = hCV27511436 rs3750145 FZD1, GENO_RESP CT, MODE GEN, STRATA no hist
[18] = hCV27511436 rs3750145 FZD1, GENO_RESP TT, MODE GEN, STRATA no hist
[19] = hCV27830265 rs12762303 ALOX5, GENO_RESP GG + AG, MODE DOM, STRATA no hist
[20] = hCV29539757 rs10110659 KCNQ3, GENO_RESP AA, MODE GEN, STRATA hist
[21] = hCV29539757 rs10110659 KCNQ3, GENO_RESP AC, MODE GEN, STRATA hist
[22] = hCV29539757 rs10110659 KCNQ3, GENO_RESP CC, MODE GEN, STRATA hist

With CC[C@H](C)C(=O)O[C@H]1C[C@H](O)C=C2C=C[C@H](C)[C@H](CC[C@@H](O)C[C@@H](O)CC(=O)O)[C@H]21 [pravastatin] the “HR_RESP (hazard ratio, pravastatin-treated versus placebo-treated)” value (hCV2169762 rs1804689 HPS1, GENO_RESP GG, MODE GEN, STRATA hist) was 1.104, the EVENTS_RESP [1] was 30 and the “HR_RESP (hazard ratio, pravastatin-treated versus placebo-treated)” value [1] was 0.659. The EVENTS_RESP [2] was 47, the “HR_RESP (hazard ratio, pravastatin-treated versus placebo-treated)” value [2] was 0.9425 and the EVENTS_RESP [3] was 47. For the same compound, the “HR_RESP (hazard ratio, pravastatin-treated versus placebo-treated)” value [3] was 1.268, the EVENTS_RESP (hCV2169762 rs1804689 HPS1, GENO_RESP TT + GT, MODE DOM, STRATA no hist) was 57 and the “HR_RESP (hazard ratio, pravastatin-treated versus placebo-treated)” value (hCV2169762 rs1804689 HPS1, GENO_RESP TT, MODE GEN, STRATA hist) was 0.3365. For the same compound, the EVENTS_RESP [4] was 10, the “HR_RESP (hazard ratio, pravastatin-treated versus placebo-treated)” value [4] was 1.275 and the EVENTS_RESP [5] was 72. For the same compound, the “HR_RESP (hazard ratio, pravastatin-treated versus placebo-treated)” value [5] was 1.087, the EVENTS_RESP [6] was 88 and the “HR_RESP (hazard ratio, pravastatin-treated versus placebo-treated)” value [6] was 1.043. The EVENTS_RESP [7] was 56, the “HR_RESP (hazard ratio, pravastatin-treated versus placebo-treated)” value [7] was 1.33 and the EVENTS_RESP [8] was 28. For the same compound, the “HR_RESP (hazard ratio, pravastatin-treated versus placebo-treated)” value [8] was 1.57, the EVENTS_RESP [9] was 94 and the “HR_RESP (hazard ratio, pravastatin-treated versus placebo-treated)” value [9] was 0.7769. The EVENTS_RESP [10] was 35, the “HR_RESP (hazard ratio, pravastatin-treated versus placebo-treated)” value [10] was 0.6977 and the EVENTS_RESP [11] was 145. The “HR_RESP (hazard ratio, pravastatin-treated versus placebo-treated)” value [11] was 0.8638, the EVENTS_RESP [12] was 59 and the “HR_RESP (hazard ratio, pravastatin-treated versus placebo-treated)” value [12] was 0.8132. The EVENTS_RESP [13] was 51, the “HR_RESP (hazard ratio, pravastatin-treated versus placebo-treated)” value [13] was 1.082 and the EVENTS_RESP [14] was 24. For the same compound, the “HR_RESP (hazard ratio, pravastatin-treated versus placebo-treated)” value [14] was 1.068, the EVENTS_RESP [15] was 27 and the “HR_RESP (hazard ratio, pravastatin-treated versus placebo-treated)” value [15] was 1.388. The EVENTS_RESP [16] was 1, the “HR_RESP (hazard ratio, pravastatin-treated versus placebo-treated)” value [16] was 0.3492 and the EVENTS_RESP [17] was 26. The “HR_RESP (hazard ratio, pravastatin-treated versus placebo-treated)” value [17] was 1.575, the EVENTS_RESP [18] was 60 and the “HR_RESP (hazard ratio, pravastatin-treated versus placebo-treated)” value [18] was 0.8524. For the same compound, the EVENTS_RESP [19] was 25, the “HR_RESP (hazard ratio, pravastatin-treated versus placebo-treated)” value [19] was 1.479 and the EVENTS_RESP [20] was 7. The “HR_RESP (hazard ratio, pravastatin-treated versus placebo-treated)” value [20] was 0.4115, the EVENTS_RESP [21] was 44 and the “HR_RESP (hazard ratio, pravastatin-treated versus placebo-treated)” value [21] was 0.9946. For the same compound, the EVENTS_RESP (hCV29539757 rs10110659 KCNQ3, GENO_RESP CC + AC, MODE REC, STRATA hist) was 106, the EVENTS_RESP [22] was 62 and the “HR_RESP (hazard ratio, pravastatin-treated versus placebo-treated)” value [22] was 1.016.
